{"source": "ChEMBL document CHEMBL5390242", "about": "“Design, Synthesis, and Antitumor Efficacy of Substituted 2-Amino[1,2,4]triazolopyrimidines and Related Heterocycles as Dual Inhibitors for Microtubule Polymerization and Janus Kinase 2” (J Med Chem, 2023)", "key": {"[1]": {"test": "Toxicity in Balb/c mouse xenografted with human A549 cells assessed as effect on lung morphology at 50 mg/kg,ip administration measured after 31 days by Hematoxylin-eosin staining based microscopy", "type": "organism-based", "settings": "in vivo, 744 h, time 31 day"}, "[2]": {"target": "Tyrosine-protein kinase JAK1 (Homo sapiens, UniProt P23458)", "sequence (P23458 whole entry)": "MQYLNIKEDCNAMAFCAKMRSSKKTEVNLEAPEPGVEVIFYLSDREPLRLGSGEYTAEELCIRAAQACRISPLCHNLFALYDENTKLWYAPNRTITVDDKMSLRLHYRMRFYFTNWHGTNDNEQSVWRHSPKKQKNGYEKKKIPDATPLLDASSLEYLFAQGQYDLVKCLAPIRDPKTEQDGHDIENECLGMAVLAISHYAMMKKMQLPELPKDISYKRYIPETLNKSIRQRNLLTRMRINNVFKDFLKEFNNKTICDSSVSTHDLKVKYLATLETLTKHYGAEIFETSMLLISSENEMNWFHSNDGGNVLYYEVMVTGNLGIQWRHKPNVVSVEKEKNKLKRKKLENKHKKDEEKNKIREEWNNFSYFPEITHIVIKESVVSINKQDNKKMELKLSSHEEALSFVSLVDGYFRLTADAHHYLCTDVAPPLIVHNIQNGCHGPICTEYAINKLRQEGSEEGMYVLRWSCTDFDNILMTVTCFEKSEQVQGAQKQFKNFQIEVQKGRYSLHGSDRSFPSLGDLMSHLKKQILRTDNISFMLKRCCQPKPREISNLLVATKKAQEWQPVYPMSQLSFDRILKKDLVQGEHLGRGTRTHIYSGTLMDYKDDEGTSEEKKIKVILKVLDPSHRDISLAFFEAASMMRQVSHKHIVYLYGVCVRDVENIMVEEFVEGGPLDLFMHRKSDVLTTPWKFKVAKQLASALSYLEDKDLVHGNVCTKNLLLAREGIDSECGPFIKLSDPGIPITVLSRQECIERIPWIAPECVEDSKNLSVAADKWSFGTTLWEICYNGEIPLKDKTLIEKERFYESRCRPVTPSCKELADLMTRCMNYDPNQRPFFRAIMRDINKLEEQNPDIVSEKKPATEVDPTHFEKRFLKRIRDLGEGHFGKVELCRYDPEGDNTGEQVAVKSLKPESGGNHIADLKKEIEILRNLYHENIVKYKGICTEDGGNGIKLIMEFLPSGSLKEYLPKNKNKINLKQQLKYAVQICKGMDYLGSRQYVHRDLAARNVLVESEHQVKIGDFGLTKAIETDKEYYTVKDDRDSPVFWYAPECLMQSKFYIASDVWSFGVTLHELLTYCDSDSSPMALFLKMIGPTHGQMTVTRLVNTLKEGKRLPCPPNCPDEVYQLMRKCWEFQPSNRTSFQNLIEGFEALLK", "test": "Inhibition of JAK1 (unknown origin) using Poly-(Glu,Tyr 4:1) peptide as substrate in presence of ATP by ADP-Glo reagent based assay"}, "A549 [3]": {"tested_on": "A549", "test": "Induction of apoptosis in human A549 cells assessed as viable cells at 20 nM incubated for 24 hrs by Annexin V-FITC/PI staining based flow cytometry (reference value: 93 %)", "type": "functional", "settings": "read-out: Activity"}, "[4]": {"test": "Cmax in CD-1 mouse at 1 mg/kg,iv measured upto 24 hrs by HPLC-MS/MS analysis", "type": "ADME, organism-based", "set-up": "dose 1 mg/kg, time < 24 hrs, route iv", "settings": "in vivo"}, "[5]": {"target": "Tyrosine-protein kinase JAK2 (Homo sapiens, UniProt O60674)", "sequence (O60674 whole entry)": "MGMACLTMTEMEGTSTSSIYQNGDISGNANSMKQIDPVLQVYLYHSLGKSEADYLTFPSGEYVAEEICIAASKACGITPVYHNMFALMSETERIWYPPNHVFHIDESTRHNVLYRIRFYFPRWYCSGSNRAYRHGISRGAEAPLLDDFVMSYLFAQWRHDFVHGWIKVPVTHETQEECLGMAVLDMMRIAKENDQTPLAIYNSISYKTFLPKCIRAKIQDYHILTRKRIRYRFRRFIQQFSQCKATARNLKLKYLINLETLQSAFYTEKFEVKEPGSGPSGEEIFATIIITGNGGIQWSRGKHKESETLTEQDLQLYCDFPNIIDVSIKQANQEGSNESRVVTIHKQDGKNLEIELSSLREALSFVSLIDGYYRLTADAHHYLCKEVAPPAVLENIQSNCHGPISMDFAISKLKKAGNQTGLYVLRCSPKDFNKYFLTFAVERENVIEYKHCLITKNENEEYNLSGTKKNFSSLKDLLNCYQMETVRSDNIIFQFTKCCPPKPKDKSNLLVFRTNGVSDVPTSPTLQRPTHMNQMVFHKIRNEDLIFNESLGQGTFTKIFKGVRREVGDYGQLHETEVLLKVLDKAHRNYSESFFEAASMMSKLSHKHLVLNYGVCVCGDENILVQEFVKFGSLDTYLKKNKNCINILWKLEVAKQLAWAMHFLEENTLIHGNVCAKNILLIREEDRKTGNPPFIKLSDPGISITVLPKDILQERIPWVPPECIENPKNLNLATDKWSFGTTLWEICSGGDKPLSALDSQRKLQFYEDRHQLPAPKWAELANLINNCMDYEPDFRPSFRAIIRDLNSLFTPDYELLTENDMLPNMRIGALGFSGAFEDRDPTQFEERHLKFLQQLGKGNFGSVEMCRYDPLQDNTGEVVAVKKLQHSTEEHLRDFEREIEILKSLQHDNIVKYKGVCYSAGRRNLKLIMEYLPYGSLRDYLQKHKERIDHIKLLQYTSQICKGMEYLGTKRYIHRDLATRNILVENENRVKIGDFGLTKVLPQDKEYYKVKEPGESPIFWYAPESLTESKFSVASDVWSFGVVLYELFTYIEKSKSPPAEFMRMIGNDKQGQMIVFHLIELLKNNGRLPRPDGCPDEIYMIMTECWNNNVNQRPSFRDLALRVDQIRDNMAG", "test": "Inhibition of JAK2 (unknown origin) using Poly-(Glu,Tyr 4:1) peptide as substrate in presence of ATP by ADP-Glo reagent based assay"}, "CWR22R": {"tested_on": "CWR22R", "test": "Cytotoxicity against human 22Rv1 cells assessed as cell growth inhibition incubated for 48 hrs by MTT assay", "type": "functional, cell-based", "settings": "22Rv1, 48 h"}, "[6]": {"test": "AUC (0 to infinity) in CD-1 mouse at 10 mg/kg,ip measured upto 24 hrs by HPLC-MS/MS analysis", "type": "ADME, organism-based", "set-up": "time < 24 hrs, dose 10 mg/kg, route ip", "settings": "in vivo"}, "[7]": {"test": "Half life in CD-1 mouse assessed as half life of metabolite at 10 mg/kg,ip measured upto 24 hrs by HPLC-MS/MS analysis", "type": "ADME, organism-based", "settings": "in vivo"}, "HT-29": {"tested_on": "HT-29", "test": "Antiproliferative activity against human HT-29 cells assessed as cell growth inhibition incubated for 48 hrs by MTT assay", "type": "functional, cell-based", "settings": "HT-29, 48 h"}, "A549 [8]": {"tested_on": "A549", "test": "Antitumor activity against human A549 cells xenografted in Balb/c mouse assessed as increase in tumor necrotic cells at 50 mg/kg,ip administration measured after 31 days by Hematoxylin-eosin staining based microscopy", "type": "functional, organism-based", "settings": "time 31.0 day"}, "A549 [9]": {"tested_on": "A549", "test": "Induction of mitochondrial membrane potential loss in human A549 cells by measuring green fluorescence at 20 nM incubated for 16 hrs by JC-1 staining based flow cytometry analysis (reference value: 0.7 %)", "type": "functional"}, "[10]": {"test": "MRT (0 to infinity) in CD-1 mouse at 1 mg/kg,iv measured upto 24 hrs by HPLC-MS/MS analysis", "type": "ADME, organism-based", "settings": "in vivo"}, "[11]": {"test": "Resistance index, ratio of IC50 for antiproliferative activity against human HCT-8/VCR cells to IC50 for antiproliferative activity against human HCT-8 cells", "type": "functional"}, "Tubulin (Sus scrofa)": {"target": "Tubulin (Sus scrofa) (UniProt P02554+P02550)", "sequence (P02550 whole entry, looked up)": "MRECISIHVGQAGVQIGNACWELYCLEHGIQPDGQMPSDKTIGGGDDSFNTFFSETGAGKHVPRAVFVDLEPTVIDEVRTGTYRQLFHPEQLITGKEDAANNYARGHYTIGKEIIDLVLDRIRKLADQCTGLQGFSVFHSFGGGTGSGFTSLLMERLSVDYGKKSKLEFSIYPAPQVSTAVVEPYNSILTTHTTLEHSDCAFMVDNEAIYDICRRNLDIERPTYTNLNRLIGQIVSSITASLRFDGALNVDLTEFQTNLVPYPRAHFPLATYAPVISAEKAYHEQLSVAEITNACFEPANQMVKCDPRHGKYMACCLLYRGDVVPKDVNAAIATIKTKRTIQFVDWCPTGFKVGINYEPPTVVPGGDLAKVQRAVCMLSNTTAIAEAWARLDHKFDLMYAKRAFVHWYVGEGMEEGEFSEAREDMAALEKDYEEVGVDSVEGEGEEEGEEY", "sequence (P02554 whole entry, looked up)": "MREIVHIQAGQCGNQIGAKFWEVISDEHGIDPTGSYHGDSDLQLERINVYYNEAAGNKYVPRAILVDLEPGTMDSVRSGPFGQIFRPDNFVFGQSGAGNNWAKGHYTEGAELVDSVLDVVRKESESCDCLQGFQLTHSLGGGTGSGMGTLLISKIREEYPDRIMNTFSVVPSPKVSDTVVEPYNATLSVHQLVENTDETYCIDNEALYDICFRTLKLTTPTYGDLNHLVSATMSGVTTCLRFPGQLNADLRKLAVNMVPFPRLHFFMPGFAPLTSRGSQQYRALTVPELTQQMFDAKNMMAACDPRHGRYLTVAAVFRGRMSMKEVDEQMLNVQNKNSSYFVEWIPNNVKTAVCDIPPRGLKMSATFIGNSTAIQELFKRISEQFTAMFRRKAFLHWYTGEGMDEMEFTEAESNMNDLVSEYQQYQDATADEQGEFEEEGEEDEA", "test": "Inhibition of porcine brain tubulin polymerization at 0.625 to 2.5 uM measured for 30 mins in presence of GTP by microplate reader assay", "type": "tissue-based", "settings": "dose 0.625-2.5 µM"}, "[12]": {"test": "AUC (0 to infinity) in CD-1 mouse at 1 mg/kg,iv measured upto 24 hrs by HPLC-MS/MS analysis", "type": "ADME, organism-based", "set-up": "dose 1 mg/kg, time < 24 hrs, route iv", "settings": "in vivo"}, "A549 [13]": {"tested_on": "A549", "test": "Induction of apoptosis in human A549 cells at 20 uM incubated for 24 hrs by Annexin V-FITC/PI staining based flow cytometry", "type": "functional"}, "[14]": {"test": "Cytotoxicity against human L02 cells assessed as cell growth inhibition incubated for 48 hrs by MTT assay", "type": "toxicity, cell-based"}, "A549 [15]": {"tested_on": "A549", "test": "Induction of mitochondrial membrane potential loss in human A549 cells by measuring red fluorescence at 5 nM incubated for 16 hrs by JC-1 staining based flow cytometry analysis (reference value: 99.3 %)", "type": "functional"}, "A549 [16]": {"tested_on": "A549", "test": "Induction of apoptosis in human A549 cells assessed as necrotic cells at 20 nM incubated for 24 hrs by Annexin V-FITC/PI staining based flow cytometry (reference value: 0.67 %)", "type": "functional"}, "[17]": {"test": "Toxicity in Balb/c mouse xenografted with human A549 cells assessed as change in body weight at 50 mg/kg,ip administration measured after 31 days", "type": "organism-based", "settings": "in vivo, 744 h, time 31 day"}, "[18]": {"test": "MRT (0 to infinity) in CD-1 mouse assessed as MRT (0 to infinity) of metabolite at 10 mg/kg,ip measured upto 24 hrs by HPLC-MS/MS analysis", "type": "ADME, organism-based", "settings": "in vivo"}, "A549 [19]": {"tested_on": "A549", "test": "Induction of apoptosis in human A549 cells assessed as viable cells at 5 nM incubated for 24 hrs by Annexin V-FITC/PI staining based flow cytometry (reference value: 93 %)", "type": "functional", "settings": "read-out: Activity"}, "A549 [20]": {"tested_on": "A549", "test": "Induction of cell cycle arrest in human A549 cells assessed as accumulation of cells at G2/M phase at 20 nM incubated for 24 hrs by PI/RNase staining based flow cytometry analysis", "type": "functional"}, "A549 [21]": {"tested_on": "A549", "test": "Induction of apoptosis in human A549 cells assessed as early apoptotic cells at 5 nM incubated for 24 hrs by Annexin V-FITC/PI staining based flow cytometry (reference value: 4.61 %)", "type": "functional"}, "[22]": {"test": "Resistance index, ratio of IC50 for antiproliferative activity against human A2780T cells to IC50 for antiproliferative activity against human A2780 cells", "type": "functional"}}, "note": "Calls of active or inactive are those of the source. The calls are words filed in the database; no cut-off is given here.", "data": [{"smiles": "COc1cc(-c2nccc3nc(Nc4cccc5[nH]ccc45)nn23)cc(OC)c1OC", "values": [{"measurement": "Activity", "setting": "[1]", "result": "Non-Toxic"}, {"measurement": "IC50", "setting": "[2]", "result": "> 20", "unit": "µM"}, {"measurement": "viability at 0.02 µM", "setting": "A549 [3]", "result": 9.34, "unit": "%"}, {"measurement": "Cmax", "setting": "[4]", "result": 117, "unit": "ng/mL"}, {"measurement": "IC50", "setting": "[5]", "result": 0.074, "unit": "µM"}, {"measurement": "IC50", "setting": "CWR22R", "result": 0.0124, "unit": "µM"}, {"measurement": "AUC(0-inf)", "setting": "[6]", "result": 580, "unit": "ng·h/mL"}, {"measurement": "t1/2", "setting": "[7]", "result": 5.3, "unit": "h"}, {"measurement": "IC50", "setting": "HT-29", "result": 0.027, "unit": "µM"}, {"measurement": "Activity", "setting": "A549 [8]", "result": "Active"}, {"measurement": "Activity", "setting": "A549 [9]", "result": 44.1, "unit": "%"}, {"measurement": "MRT inf", "setting": "[10]", "result": 7.1, "unit": "h"}, {"measurement": "Ratio IC50", "setting": "[11]", "result": 1.4}, {"measurement": "inhibition", "setting": "Tubulin (Sus scrofa)", "result": "Active"}, {"measurement": "AUC(0-inf)", "setting": "[12]", "result": 390, "unit": "ng·h/mL"}, {"measurement": "Activity", "setting": "A549 [13]", "result": 80.7, "unit": "%"}, {"measurement": "IC50 at 48 h", "setting": "[14]", "result": 0.339, "unit": "µM"}, {"measurement": "Activity", "setting": "A549 [15]", "result": 89.1, "unit": "%"}, {"measurement": "Activity", "setting": "A549 [16]", "result": 5.26, "unit": "%"}, {"measurement": "Activity", "setting": "[17]", "result": "Non-Toxic"}, {"measurement": "MRT", "setting": "[18]", "result": 4, "unit": "h"}, {"measurement": "viability at 0.005 µM", "setting": "A549 [19]", "result": 90.5, "unit": "%"}, {"measurement": "Activity", "setting": "A549 [20]", "result": 91.5, "unit": "%"}, {"measurement": "Activity", "setting": "A549 [21]", "result": 7.51, "unit": "%"}, {"measurement": "Ratio IC50", "setting": "[22]", "result": 0.3}]}]}
